One data set has as its system V8 cell. In words: PARP1 inhibitory activity at cellular level (proliferation inhibition model). The following applies: read-out: PARP1 inhibitory activity at cellular level (%).
Another data set deals with U87-MG. Briefly: Inhibition of tumor cell proliferation, U87-MG. The following applies: Homo sapiens, U-87 MG.
The subject of data set [1] is MDA-MB-436 human breast cancer. In words: Antitumor activity in vivo, subcutaneously transplanted tumor in MDA-MB-436 human breast cancer nude mice. The following applies: for TV (mean ± SD) d0: d0 (at grouping); for RTV (mean ± SD) / T/C (%) / TV (mean ± SD) d21 / number of animals in which tumor regressed: d21; for number of animals in which tumor regressed: 6 animals. Here is the method:
A tumor tissue in vigorous growing period was cut into about 1.5 mm^3, and inoculated subcutaneously into right armpit of nude mice under a sterile condition. The diameter of subcutaneous transplant tumor in nude mice was measured by vernier caliper. When the tumor grew to 100-200 mm^3, the animals were randomly grouped. […] Solvent control group was administered saline in same volume. During the whole experiment, the tumor diameter was measured twice a week, while the body weight of mice was weighed simultaneously. The formula to calculate tumor volume (TV) was TV=½*a*b^2, wherein a and b respectively referred to length and width. Relative tumor volume (RTV) was calculated according to the measurements, and the formula is RTV=Vt/V0, wherein V0 is the tumor volume measured when the mice were grouped (i.e. d0), and Vt is the tumor volume measured each time.

Another data set relates to OVCAR-8. Briefly: Inhibition of tumor cell proliferation, OVCAR-8. The following applies: Homo sapiens.
A further data set deals with PC-3. In words: Inhibition of tumor cell proliferation, PC-3. The following applies: Homo sapiens.
A further data set deals with Capan-1. In words: Inhibition of tumor cell proliferation, Capan-1. The following applies: Homo sapiens.
The subject of the next data set is U251. Briefly: Inhibition of tumor cell proliferation, U251. The following applies: Homo sapiens, U-251.
The conditions of data set [2]: in vivo; cited from earlier work.

Marks after values point to notes of the source that are not given here.

Take `CC1CN(C(=O)c2cc(Cc3n[nH]c(=O)c4ccccc34)ccc2F)Cc2nnc(CF)n21` (centres unmarked) [Compound S18]: in the data set on V8 cell, the inhibition at 0.0016 µM amounted to 7.63%, the inhibition at 0.008 µM was determined as 54.1%, the inhibition at 0.04 µM is 77% and the inhibition at 0.2 µM was determined as 77%. The inhibition at 1 µM with V8 cell came to 78.4%.

Turning to `COC1CN(C(=O)c2cc(Cc3n[nH]c(=O)c4ccccc34)ccc2F)Cc2nnc(C(F)(F)F)n21` (centres unmarked) [Compound S10], in the data set on V8 cell, the inhibition at 0.0016 µM was 11.6%, the inhibition at 0.008 µM is 10.5%, the inhibition at 0.04 µM was determined as 31.8% and the inhibition at 0.2 µM is 67.5%. Moreover, the inhibition at 1 µM with V8 cell was determined as 78.6%.

`CC1CN(C(=O)c2cc(Cc3n[nH]c(=O)c4ccccc34)ccc2F)Cc2nnc(C(F)(F)F)n21` (racemic) [Compound S3]: in the data set with U87-MG, the IC50 (in general, the concentration at which inhibition is half-maximal) is 228 nM. Besides, in the data set on V8 cell, the inhibition at 0.0016 µM is -3.11%, the inhibition at 0.008 µM came out at 33.1%, the inhibition at 0.04 µM was 61.2% and the inhibition at 0.2 µM came out at 70.1%. In addition, the inhibition at 1 µM in the data set on V8 cell was 74.4%. Besides, in data set [1] (25 mg/kg, po, qd × 21), the “TV (mean ± SD) d0” value is reported as 127 ± 30 mm^3, the “RTV (mean ± SD)” value is listed as 1.40 ± 0.71**, the “T/C (%)” value amounted to 9.80% and the “TV (mean ± SD) d21” value came out at 165 ± 57 mm^3. The “number of animals in which tumor regressed” value in data set [1] (25 mg/kg, po, qd × 21) is 3. The “tumor outcome” value in data set [1] (100 mg/kg) is “the tumor completely disappeared”. In addition, the side effects entry in data set [1] (100 mg/kg and 25 mg/kg, po, qd × 21) was “no significant side effects”. Besides, in data set [1] (100 mg/kg, po, qd × 21), the “TV (mean ± SD) d0” value was determined as 128 ± 36 mm^3, the “RTV (mean ± SD)” value is 0.08 ± 0.04**, the “T/C (%)” value amounted to 0.59% and the “TV (mean ± SD) d21” value worked out at 11 ± 7 mm^3. In addition, the “number of animals in which tumor regressed” value in data set [1] (100 mg/kg, po, qd × 21) was determined as 1. This molecule came in with an IC50 in the data set with OVCAR-8 of 10500 nM. Also, the IC50 in the data set with PC-3 was determined as 995 nM. The same molecule gave an IC50 with Capan-1 of 7.6 nM.

Take `CC1c2nnc(CF)n2C(C)CN1C(=O)c1cc(Cc2n[nH]c(=O)c3ccccc23)ccc1F` (centres unmarked) [Compound S19]: in the data set on V8 cell, the inhibition at 0.0016 µM worked out at 2.09%, the inhibition at 0.008 µM is -2.17%, the inhibition at 0.04 µM came to 3.32% and the inhibition at 0.2 µM came to 0.4%. The inhibition at 1 µM in the data set with V8 cell came out at 0.69%.

As to `CC1c2nnc(C(F)(F)F)n2CCN1C(=O)c1cc(Cc2n[nH]c(=O)c3ccccc23)ccc1F` (centres unmarked) [Compound S4], in the data set with V8 cell, the inhibition at 0.0016 µM is -1.36%, the inhibition at 0.008 µM turned out to be 8.66%, the inhibition at 0.04 µM came to 53.1% and the inhibition at 0.2 µM stood at 75.5%. Also, the inhibition at 1 µM in the data set on V8 cell came to 75.7%.

As for `CC1CN(C(=O)c2cc(Cc3n[nH]c(=O)c4ccccc34)ccc2F)Cc2nnc(C(F)F)n21` (centres unmarked) [Compound S17], in the data set with V8 cell, the inhibition at 0.0016 µM amounted to 4.61%, the inhibition at 0.008 µM came to 12.1%, the inhibition at 0.04 µM amounted to 65.6% and the inhibition at 0.2 µM came to 76.5%. Besides, the inhibition at 1 µM with V8 cell was found to be 79.7%.

As for `CC1c2nnc(C(F)(F)F)n2C(C)CN1C(=O)c1cc(Cc2n[nH]c(=O)c3ccccc23)ccc1F` (centres unmarked) [Compound S5], in the data set on V8 cell, the inhibition at 0.0016 µM was -5.06%, the inhibition at 0.008 µM is -3.01%, the inhibition at 0.04 µM was 23.5% and the inhibition at 0.2 µM is 63.8%. Also, the inhibition at 1 µM in the data set with V8 cell worked out at 73.5%.

On to `O=C(c1cc(Cc2n[nH]c(=O)c3ccccc23)ccc1F)N1CCN(C(=O)C2CC2)CC1` [AZD2281, olaparib, reference compound], for which the IC50 in the data set with U87-MG came to 2920 nM. The molecule further had an IC50 in the data set with U251 of 1190 nM. For the same molecule, in data set [1] (100 mg/kg, po, qd × 21), the “TV (mean ± SD) d0” value came out at 127 ± 37 mm^3, the “RTV (mean ± SD)” value was 0.95 ± 0.78**, the “T/C (%)” value is recorded as 6.65% and the “TV (mean ± SD) d21” value was 120 ± 118 mm^3. For the same molecule, in data set [2], the bioavailability (commonly the share of a dose that reaches the circulation, judged against a reference dose that is usually intravenous) was less than 15% and the half-life time was less than 1 h. Also, the IC50 in the data set with OVCAR-8 was 12400 nM. This molecule also came in with an IC50 with PC-3 of 3920 nM. The IC50 in the data set with Capan-1 came to 729 nM.

The record behind these values is patent US9255106B2, “Substituted [1,2,4]triazolo[4,3-a]pyrazines as PARP-1 inhibitors” (SHANGHAI INSTITUTE OF MATERIA MEDICA, CHINESE ACADEMY OF …, priority 2012, dated 2016).
